Data from patent US11708360B2, “N-substituted-dioxocyclobutenylamino-3-hydroxy-picolinamides useful as CCR6 inhibitors” (Pfizer Inc., priority 2018, dated 2023).

Experiments:
CCR6 = biological target: T1, CCR6 (Homo sapiens, UniProt P51684); assay: CCR6+ T Cell Chemotaxis Assay; assay type: cell-based; conditions: for IC50: Table 11, human CD4+CCR6+CXCR3- T cells, CCL20 0.5 nM in bottom chamber, 1 h at 37° C., read-out: IC50; for T Cell Chemotaxis Selectivity: Table 13, T cell chemotaxis compared to neutrophil chemotaxis, NS = not selective for T cell chemotaxis compared to neutrophil chemotaxis
T1 construct: Human CD4+CCR6+CXCR3-T cells were isolated from leukopak from healthy donors; endogenous in cells
T1 sequence (P51684 1-374): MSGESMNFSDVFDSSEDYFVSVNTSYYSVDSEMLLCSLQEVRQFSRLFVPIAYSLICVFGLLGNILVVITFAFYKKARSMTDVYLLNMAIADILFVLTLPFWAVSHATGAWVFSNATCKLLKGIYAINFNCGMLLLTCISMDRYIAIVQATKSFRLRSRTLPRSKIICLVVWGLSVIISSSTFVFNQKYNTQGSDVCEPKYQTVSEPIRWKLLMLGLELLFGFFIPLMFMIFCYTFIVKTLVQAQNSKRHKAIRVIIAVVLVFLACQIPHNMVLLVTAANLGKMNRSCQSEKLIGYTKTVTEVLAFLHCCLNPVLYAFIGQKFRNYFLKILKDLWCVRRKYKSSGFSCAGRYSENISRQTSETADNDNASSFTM
Excerpt: Human CD4+CCR6+CXCR3-T cells were isolated from leukopak from healthy donors using EasySep™ Human Th17 Cell Enrichment Kit. […] Day 4 post activation, Dynabeads were removed from the culture. The activated T cells were maintained at 1-2×10^6 cells/mL for 15 days by feeding fresh growth media when needed.
For IC50 determination, the top and bottom of the chemotaxis chamber contained the same concentration of compound. DMSO was kept constant at 0.1% (v/v) in all wells. The final concentration of CCL20 (Peprotech 300-29A) in the bottom chamber is 0.5 nM. The fully assembled chemotaxis plate was placed in a cell culture incubator at 37° C., 5% CO2 for 1 h. After incubation, the top filter was removed, followed by a quick freeze of the bottom chamber at −80° C. for 1 h. The migrated cells in the bottom chamber were stained with CyQUANT dye (Life Technologies, C7026) for cell number determination.
IC50 values for compounds of the present invention (Table 11) were determined by the non-linear regression analysis of dose response curves.

CXCR2 = biological target: T2, CXCR2 (Homo sapiens, UniProt P25025); assay: Human Neutrophil Chemotaxis Assay; assay type: cell-based; parameters: Human neutrophils were purified from freshly drawn human whole blood; endogenous in cells; host or cells: primary human neutrophils from fresh whole blood; conditions: Table 12; human neutrophils migrating towards the CXCR2 ligand GROα; read-out: IC50
T2 sequence (P25025 1-360): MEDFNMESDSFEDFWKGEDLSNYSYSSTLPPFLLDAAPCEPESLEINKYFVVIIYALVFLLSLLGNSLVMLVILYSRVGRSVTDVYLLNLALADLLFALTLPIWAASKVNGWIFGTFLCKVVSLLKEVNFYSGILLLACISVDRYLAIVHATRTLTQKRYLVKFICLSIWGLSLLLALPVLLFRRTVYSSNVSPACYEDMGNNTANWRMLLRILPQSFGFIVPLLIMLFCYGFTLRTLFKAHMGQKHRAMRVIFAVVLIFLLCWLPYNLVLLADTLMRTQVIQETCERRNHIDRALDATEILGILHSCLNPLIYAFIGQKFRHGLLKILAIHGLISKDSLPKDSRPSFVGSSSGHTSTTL
Protocol: After 30 min, the labeled neutrophils were washed twice in chemotaxis buffer, resuspended as before and used immediately. For the assay, test compounds were tested in a dose-response format to determine IC50. Labeled neutrophils (50 μL) were pre-incubated with diluted test compound (50 μL) for 30 min in a 96-well plate (Greiner). Next, 100 μL of diluted compound was mixed with 100 μL of GROα (Peprotech #300-11, 2 nM) in the bottom portion of the chemotaxis chamber. The top portion (insert) of the chemotaxis system containing the FluoroBlok porous membrane was then assembled together. 50 μL of the pre-incubated neutrophils were added to the FluoroBlok insert (top portion) and chemotaxis measured by the neutrophils ability to migrate through the membrane towards the specific CXCR2 ligand, GROα.
IC50 values for compounds of the present invention (Table 12) were determined by the non-linear regression analysis of dose response curves.

SMILES | IC50 (CCR6) [nM] | T Cell Chemotaxis Selectivity (CCR6) | IC50 (CXCR2) [nM]
COc1cn(C)nc1[C@H](Nc1c(Nc2ccnc(C(=O)N(C)C)c2O)c(=O)c1=O)C(C)(C)C [Example 13, (R)-3-Hydroxy-4-((2-((1-(4-methoxy-1-methyl-1H-pyrazol-3-yl)-2,2-dimethylpropyl)amino)-3,4-dioxocyclobut-1-en-1-yl)amino)-N,N-dimethylpicolinamide] | 5.4 | 60 | 328
COc1cn(C)nc1[C@H](Nc1c(Nc2ccnc(C(=O)N(C)C(C)C)c2O)c(=O)c1=O)C(C)(C)C [Example 14, (R)-3-Hydroxy-N-isopropyl-4-((2-((1-(4-methoxy-1-methyl-1H-pyrazol-3-yl)-2,2-dimethylpropyl)amino)-3,4-dioxocyclobut-1-en-1-yl)amino)-N-methylpicolinamide] | 12.5 | 22 | 272
Cc1cn(C)nc1[C@H](Nc1c(Nc2ccnc(C(=O)N(C)C)c2O)c(=O)c1=O)C1(C)CC1 [Example 20, (R)-4-((2-(((1,4-Dimethyl-1H-pyrazol-3-yl)(1-methylcyclopropyl)methyl)amino)-3,4-dioxocyclobut-1-en-1-yl)amino)-3-hydroxy-N,N-dimethylpicolinamide] | 271 |  | 167
CCc1cn(C)nc1[C@H](Nc1c(Nc2ccnc(C(=O)N(C)C)c2O)c(=O)c1=O)C1(C)CC1 [Example 21, (R)-4-((2-(((4-Ethyl-1-methyl-1H-pyrazol-3-yl)(1-methylcyclopropyl)methyl)amino)-3,4-dioxocyclobut-1-en-1-yl)amino)-3-hydroxy-N,N-dimethylpicolinamide] | 102 | 3 | 293
Cc1cn(C)nc1[C@H](Nc1c(Nc2ccnc(C(=O)N(C)C)c2O)c(=O)c1=O)C(C)(C)C [Example 22, (R)-4-((2-((1-(1,4-Dimethyl-1H-pyrazol-3-yl)-2,2-dimethylpropyl)amino)-3,4-dioxocyclobut-1-en-1-yl)amino)-3-hydroxy-N,N-dimethylpicolinamide] | 7.4 | 19 | 141
Cc1nc([C@H](Nc2c(Nc3ccnc(C(=O)N(C)C)c3O)c(=O)c2=O)C(C)(C)C)c(C)s1 [Example 25, (R)-4-((2-((1-(2,5-Dimethylthiazol-4-yl)-2,2-dimethylpropyl)-amino)-3,4-dioxocyclobut-1-en-1-yl)amino)-3-hydroxy-N,N-dimethylpicolinamide] | 1.2 | 296 | 355
CCc1cn(C)nc1[C@H](Nc1c(Nc2ccnc(C(=O)N(C)C)c2O)c(=O)c1=O)C1(C)CCC1 [Example 26, (R)-4-((2-(((4-Ethyl-1-methyl-1H-pyrazol-3-yl)(1-methylcyclobutyl)methyl)amino)-3,4-dioxocyclobut-1-en-1-yl)amino)-3-hydroxy-N,N-dimethylpicolinamide] | 3.3 | 43 | 142
CCc1cn(C)nc1[C@H](Nc1c(Nc2ccnc(C(=O)N(C)C)c2O)c(=O)c1=O)C(C)(C)C [Example 27, (R)-4-((2-((1-(4-Ethyl-1-methyl-1H-pyrazol-3-yl)-2,2-dimethylpropyl)amino)-3,4-dioxocyclobut-1-en-1-yl)amino)-3-hydroxy-N,N-dimethylpicolinamide] | 13.2 | 4 | 52.6
CN(C)C(=O)c1nccc(Nc2c(N[C@@H](c3nn(C)cc3C3CC3)C3(C)CCCC3)c(=O)c2=O)c1O [Example 29, (R)-4-((2-(((4-Cyclopropyl-1-methyl-1H-pyrazol-3-yl)(1-methylcyclopentyl)methyl)amino)-3,4-dioxocyclobut-1-en-1-yl)amino)-3-hydroxy-N,N-dimethylpicolinamide] | 12 | 367 | 4410
CCN(C)C(=O)c1nccc(Nc2c(N[C@@H](c3nn(C)cc3C#N)C3(C)CCCC3)c(=O)c2=O)c1O [Example 30, (R)-4-((2-(((4-Cyano-1-methyl-1H-pyrazol-3-yl)(1-methylcyclopentyl)methyl)amino)-3,4-dioxocyclobut-1-en-1-yl)amino)-N-ethyl-3-hydroxy-N-methylpicolinamide] | 96.1 | 42 | 4030

Now from value to compound:

IC50 (CCR6) [nM] | T Cell Chemotaxis Selectivity (CCR6) | IC50 (CXCR2) [nM] | SMILES
10.6 | 69 | 735 | CN(C)C(=O)c1nccc(Nc2c(N[C@@H](c3nn(C)cc3OC(F)F)C3(C)CCCC3)c(=O)c2=O)c1O [Example 15, (R)-4-((2-(((4-(Difluoromethoxy)-1-methyl-1H-pyrazol-3-yl)(1-methylcyclopentyl)methyl)amino)-3,4-dioxocyclobut-1-en-1-yl)amino)-3-hydroxy-N,N-dimethylpicolinamide]
41.7 | 104 | 4350 | CN(C)C(=O)c1nccc(Nc2c(N[C@@H](c3nn(C)cc3C#N)C3(C)CCCC3)c(=O)c2=O)c1O [Example 16, (R)-4-((2-(((4-Cyano-1-methyl-1H-pyrazol-3-yl)(1-methylcyclopentyl)methyl)amino)-3,4-dioxocyclobut-1-en-1-yl)amino)-3-hydroxy-N,N-dimethylpicolinamide]
3.3 | 306 | 1010 | CCc1cn(C)nc1[C@H](Nc1c(Nc2ccnc(C(=O)N(C)C)c2O)c(=O)c1=O)C1(C)CCCC1 [Example 18, (R)-4-((2-(((4-Ethyl-1-methyl-1H-pyrazol-3-yl)(1-methylcyclopentyl)methyl)amino)-3,4-dioxocyclobut-1-en-1-yl)amino)-3-hydroxy-N,N-dimethylpicolinamide]
70.6 | 3 | 197 | Cc1nc([C@H](Nc2c(Nc3ccnc(C(=O)N(C)C)c3O)c(=O)c2=O)C2(C)CC2)c(C)s1 [Example 19, (R)-4-((2-(((2,5-Dimethylthiazol-4-yl)(1-methylcyclopropyl)-methyl)amino)-3,4-dioxocyclobut-1-en-1-yl)amino)-3-hydroxy-N,N-dimethylpicolinamide]
16.5 | 15 | 248 | Cc1cn(C)nc1[C@H](Nc1c(Nc2ccnc(C(=O)N(C)C)c2O)c(=O)c1=O)C1(C)CCC1 [Example 23, (R)-4-((2-(((1,4-Dimethyl-1H-pyrazol-3-yl)(1-methylcyclobutyl)methyl)amino)-3,4-dioxocyclobut-1-en-1-yl)amino)-3-hydroxy-N,N-dimethylpicolinamide]
3.1 | 325 | 1010 | Cc1nc([C@H](Nc2c(Nc3ccnc(C(=O)N(C)C)c3O)c(=O)c2=O)C2(C)CCC2)c(C)s1 [Example 24, (R)-4-((2-(((2,5-Dimethylthiazol-4-yl)(1-methylcyclobutyl)-methyl)amino)-3,4-dioxocyclobut-1-en-1-yl)amino)-3-hydroxy-N,N-dimethylpicolinamide]
36.7 | 60 | 2190 | Cc1sc(CO)nc1[C@H](Nc1c(Nc2ccnc(C(=O)N(C)C)c2O)c(=O)c1=O)C1(C)CCCC1 [Example 28, (R)-3-Hydroxy-4-((2-(((2-(hydroxymethyl)-5-methylthiazol-4-yl)(1-methylcyclopentyl)methyl)amino)-3,4-dioxocyclobut-1-en-1-yl)amino)-N,N-dimethylpicolinamide]
